Test [1] has as its target T1, mineralocorticoid receptor (Homo sapiens (Human), UniProt P08235). Nature of the test: Mineralocorticoid receptor binding test. The settings on record: reference 3H-aldosterone, Hi5 cytosol. An excerpt:
2. Mineralocorticoid Receptor Binding Test:

For test [2], the target named is T2, androgen receptor (Homo sapiens (Human), UniProt P10275). Nature of the test: Androgenic/antiandrogenic action by transactivation test (PC3 reporter cells). Conditions: for IC50: 0.05 nM R1881, read-out: Androgen receptor Antagonism IC50; for EC50: read-out: Androgen receptor Agonism EC50. The test is classed as cell-based. How it is done: 6. Determination of Androgenic/Antiandrogenic Action by Means of Transactivation Tests:
The androgenic/antiandrogenic action of the test substances was determined as for the transactivation tests described above.
The following modifications were made: In this case reporter cell lines were used (PC3 cells) that express the androgen receptor, and a reporter construct that contains luciferase under the control of a steroid hormone-responsive promoter.
For determination of the antiandrogenic efficacy, 0.05 nM R1881 was added to the cells, in order to achieve almost maximum stimulation of the reporter gene.

The target of the next test is progesterone receptor (Homo sapiens (Human), UniProt P06401). Nature of the test: Progesterone receptor binding test. The settings on record: for Progesterone receptor (PR) Competition factor: CF 1 = affinity of progesterone, CF > 1 lower affinity; for IC50: displacement of 3H-progesterone, cytosol from PR-expressing Hi5 insect cells; for CF PR/CF MR: ratio of competition factors CF(PR) and CF(MR). How it is done:
1. Progesterone Receptor Binding Test:
Using cytosol from progesterone receptor-expressing insect cells (Hi5), competitive binding to the progesterone receptor was determined from the ability to displace ^3H-progesterone as reference substance from the receptor.
(Displacement assays read how much labelled ligand stays bound in the presence of the test substance.)

Test [3] concerns the target T1, mineralocorticoid receptor. Nature of the test: Antimineralocorticoid action by transactivation test (MDCK reporter cells). The test is classed as cell-based. Conditions: for IC50: read-out: Mineralocorticoid receptor Antagonism IC50; for Emax: read-out: Mineralocorticoid receptor Antagonism efficacy. How it is done:
5. Determination of Antimineralocorticoid Action by Means of Transactivation Tests:
The antimineralocorticoid activity of the test substances was determined as for the transactivation tests described above.
The following modifications were undertaken: In this case reporter cell lines were used (MDCK cells) that express the human mineralocorticoid receptor, and transiently contain a reporter construct that contains luciferase under the control of a steroid hormone-responsive promoter.

The target in test [4] is fusion protein from the PR-ligand-binding domain and a Gal4-transactivation domain (Homo sapiens, UniProt P06401). Nature of the test: Progestational action by transactivation test (CHO K1 reporter cells). The test is classed as cell-based. The settings on record: CHO K1 luciferase reporter, 16 hours incubation; for EC50: read-out: Progesterone receptor Agonism EC50; for Emax: read-out: Progesterone receptor Agonism efficacy. How it is done:
4. Determination of Progestational Action by Means of Transactivation Tests:
The test compounds were added eight hours later, and the cells were incubated with the compounds for 16 hours. The tests were carried out in triplicate. At the end of incubation the medium containing the effector was removed and replaced with lysis buffer. After luciferase assay substrate (Promega, #E1501) had been added, the 96-well plates were then put in a microplate luminometer (Pherastar, BMG Labtech), and the luminescence was measured. The IC50 values were evaluated using software for calculating dose-effect relations.

Test [5] has as its target T2, androgen receptor. Nature of the test: Androgen receptor binding test. The settings on record: reference 3H-testosterone, Hi5 cytosol; for IC50: read-out: Androgen receptor IC50.
Method: Androgen Receptor Binding Test:
The test was carried out as in 1., with the following modifications: cytosol from androgen receptor-expressing insect cells (Hi5) was used, and the reference substance was ^3H-testosterone.
Setting [6] is: 0.05 nM R1881, read-out: Androgen receptor Antagonism efficacy.
[7] abbreviates: read-out: Androgen receptor Agonism efficacy.
[8] abbreviates: MDCK reporter cells, 1 nM aldosterone.

The structures appear in SMILES notation. Where two headings read alike, the source gives them in different places.

From patent US9034856B2, “17-(1′propenyl)-17-3′-oxidoestra-4-en-3-one derivative, use thereof, and medicament containing said derivative” (Bayer Intellectual Property GmbH, priority 2007, dated 2015) come the findings set out here.

A word on the IC50: it is the concentration needed to halve the response being measured. By EC50 is commonly meant the midpoint of the concentration-response curve.

T2 sequence (P10275 whole entry, species assumed): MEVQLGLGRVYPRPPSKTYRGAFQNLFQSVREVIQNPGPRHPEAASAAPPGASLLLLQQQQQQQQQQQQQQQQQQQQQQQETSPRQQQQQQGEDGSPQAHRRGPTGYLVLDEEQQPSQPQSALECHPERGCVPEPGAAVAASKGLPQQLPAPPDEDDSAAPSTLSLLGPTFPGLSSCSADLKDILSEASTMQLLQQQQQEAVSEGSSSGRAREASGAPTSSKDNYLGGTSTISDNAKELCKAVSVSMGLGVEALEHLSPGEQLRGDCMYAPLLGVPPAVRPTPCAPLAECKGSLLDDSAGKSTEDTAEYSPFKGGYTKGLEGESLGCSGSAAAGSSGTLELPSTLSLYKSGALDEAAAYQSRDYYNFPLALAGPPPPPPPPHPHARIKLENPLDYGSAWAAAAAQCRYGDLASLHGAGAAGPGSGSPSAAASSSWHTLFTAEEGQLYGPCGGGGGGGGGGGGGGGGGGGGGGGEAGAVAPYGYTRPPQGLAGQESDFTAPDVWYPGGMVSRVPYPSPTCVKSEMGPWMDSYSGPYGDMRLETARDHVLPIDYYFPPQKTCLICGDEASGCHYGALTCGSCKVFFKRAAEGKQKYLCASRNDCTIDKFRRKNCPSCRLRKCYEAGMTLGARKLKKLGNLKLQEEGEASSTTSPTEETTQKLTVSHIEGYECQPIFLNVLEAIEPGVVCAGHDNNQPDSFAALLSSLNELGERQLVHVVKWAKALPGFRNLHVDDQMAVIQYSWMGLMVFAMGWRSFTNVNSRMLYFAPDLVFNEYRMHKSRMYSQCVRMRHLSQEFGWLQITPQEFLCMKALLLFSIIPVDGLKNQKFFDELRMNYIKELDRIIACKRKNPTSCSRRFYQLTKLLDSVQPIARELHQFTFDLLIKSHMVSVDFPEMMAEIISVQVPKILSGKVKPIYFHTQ
T1 sequence (P08235 whole entry): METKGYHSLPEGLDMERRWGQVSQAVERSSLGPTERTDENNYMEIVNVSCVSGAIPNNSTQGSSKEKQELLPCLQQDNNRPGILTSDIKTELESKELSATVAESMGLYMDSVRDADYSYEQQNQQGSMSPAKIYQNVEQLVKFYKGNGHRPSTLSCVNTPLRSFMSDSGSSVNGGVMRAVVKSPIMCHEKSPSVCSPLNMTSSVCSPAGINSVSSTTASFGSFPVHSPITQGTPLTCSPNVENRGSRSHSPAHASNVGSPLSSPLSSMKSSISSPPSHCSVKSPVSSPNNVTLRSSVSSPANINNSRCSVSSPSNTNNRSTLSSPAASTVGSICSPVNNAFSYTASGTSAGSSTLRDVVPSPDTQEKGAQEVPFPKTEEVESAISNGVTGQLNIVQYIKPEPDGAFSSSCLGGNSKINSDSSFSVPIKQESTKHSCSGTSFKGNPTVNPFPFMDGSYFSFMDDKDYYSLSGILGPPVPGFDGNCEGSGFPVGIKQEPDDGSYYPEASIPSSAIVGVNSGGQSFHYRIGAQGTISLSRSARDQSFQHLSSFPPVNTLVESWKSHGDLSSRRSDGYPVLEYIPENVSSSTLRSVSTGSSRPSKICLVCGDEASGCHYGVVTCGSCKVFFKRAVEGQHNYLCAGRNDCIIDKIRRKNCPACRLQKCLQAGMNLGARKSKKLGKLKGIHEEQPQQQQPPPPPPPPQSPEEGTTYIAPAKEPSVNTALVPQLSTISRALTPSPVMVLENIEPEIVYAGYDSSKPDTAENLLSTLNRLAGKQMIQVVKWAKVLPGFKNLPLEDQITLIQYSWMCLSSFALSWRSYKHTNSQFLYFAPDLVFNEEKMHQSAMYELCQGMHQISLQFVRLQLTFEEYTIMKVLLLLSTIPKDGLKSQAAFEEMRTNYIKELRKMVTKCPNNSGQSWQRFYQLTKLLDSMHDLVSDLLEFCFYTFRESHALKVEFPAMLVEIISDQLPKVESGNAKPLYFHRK
Chain of fusion protein from the PR-ligand-binding domain and a Gal4-transactivation domain (P06401 679-913): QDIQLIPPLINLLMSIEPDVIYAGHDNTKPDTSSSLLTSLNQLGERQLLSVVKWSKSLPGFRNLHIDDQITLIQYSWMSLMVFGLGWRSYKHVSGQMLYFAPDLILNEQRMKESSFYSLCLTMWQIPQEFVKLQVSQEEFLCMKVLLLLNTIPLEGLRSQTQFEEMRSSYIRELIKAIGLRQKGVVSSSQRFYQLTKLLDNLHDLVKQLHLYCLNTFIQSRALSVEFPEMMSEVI
Chain of progesterone receptor (P06401 whole entry, species assumed): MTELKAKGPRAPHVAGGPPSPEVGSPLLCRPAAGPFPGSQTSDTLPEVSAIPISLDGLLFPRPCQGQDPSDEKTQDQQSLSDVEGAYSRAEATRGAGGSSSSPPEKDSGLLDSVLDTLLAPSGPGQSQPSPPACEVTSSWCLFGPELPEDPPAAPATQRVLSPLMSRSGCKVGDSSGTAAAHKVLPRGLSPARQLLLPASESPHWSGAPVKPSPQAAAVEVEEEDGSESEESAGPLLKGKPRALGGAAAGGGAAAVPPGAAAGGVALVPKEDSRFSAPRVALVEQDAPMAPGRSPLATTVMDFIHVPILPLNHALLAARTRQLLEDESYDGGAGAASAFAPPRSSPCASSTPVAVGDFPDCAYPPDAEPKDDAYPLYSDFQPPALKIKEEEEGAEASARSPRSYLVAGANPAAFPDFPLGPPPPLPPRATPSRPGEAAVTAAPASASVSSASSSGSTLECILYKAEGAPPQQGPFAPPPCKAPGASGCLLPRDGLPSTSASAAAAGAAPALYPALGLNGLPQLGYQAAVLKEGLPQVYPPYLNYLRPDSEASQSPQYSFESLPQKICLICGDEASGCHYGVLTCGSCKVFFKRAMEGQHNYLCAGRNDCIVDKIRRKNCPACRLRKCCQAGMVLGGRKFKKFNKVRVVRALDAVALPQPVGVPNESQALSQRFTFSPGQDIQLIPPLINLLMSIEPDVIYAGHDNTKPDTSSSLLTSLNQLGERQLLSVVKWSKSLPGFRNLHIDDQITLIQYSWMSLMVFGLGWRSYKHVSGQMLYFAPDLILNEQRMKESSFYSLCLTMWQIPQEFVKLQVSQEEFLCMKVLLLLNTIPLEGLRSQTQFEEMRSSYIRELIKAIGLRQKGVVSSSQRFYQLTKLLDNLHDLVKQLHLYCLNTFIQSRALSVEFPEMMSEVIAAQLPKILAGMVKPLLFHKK

Turning to `C[C@]12CC[C@H]3[C@@H](CCC4=CC(=O)CC[C@@H]43)[C@@H]1CC[C@@]21C=CCO1` (stereo in doubt) [Example 1, 17α-(1′-Propenyl)-17β-3′-oxidoestra-4-en-3-one], the “Mineralocorticoid receptor (MR) Competition factor” value in test [1] is 2.6. Moreover, the Emax stood at 29% at androgen receptor [2] (setting [6]), 62.7% at androgen receptor [2] (setting [7]) and 83% in test [3] (setting [8]). For the same molecule, the “Progesterone receptor (PR) Competition factor” value (“Progesterone receptor” for short) at progesterone receptor was 0.46. Moreover, the IC50 at progesterone receptor came to 3 nM; in test [3] (setting [8]), 31 nM.

Turning to `C[C@]12CC[C@H]3[C@@H](C=CC4=CC(=O)CC[C@@H]43)[C@@H]1CC[C@@]21C=CCO1` (stereo in doubt) [Example 2, 17α-(1′-Propenyl)-17β-3′-oxidoestra-4,6-dien-3-one], the “Mineralocorticoid receptor (MR) Competition factor” value in test [1] is given as 8.9. Further, the Emax on androgen receptor [2] (setting [6]) was 34.4%; at androgen receptor [2] (setting [7]) it was 31.9%; in test [4], 36.4%; in test [3] (setting [8]), 136%. The “Progesterone receptor” value at progesterone receptor amounted to 2.29. Besides, the IC50 turned out to be 55.5 nM on progesterone receptor and 92 nM in test [3] (setting [8]). The EC50 in test [4] worked out at 2.9 nM.

Take `C[C@]12CC[C@H]3[C@@H](CCC4=CC(=O)CC[C@@H]43)[C@@H]1CC1(CC1)[C@@]21C=CCO1` (stereo in doubt) [Example 6, 16,16-Ethylene-17α-(1′-propenyl)-17β-3′-oxidoestra-4-en-3-one]: in test [1], the “Mineralocorticoid receptor (MR) Competition factor” value amounted to 22.9. Moreover, the values for the Emax (on androgen receptor [2] (setting [6]); on androgen receptor [2] (setting [7]); in test [3] (setting [8])) were 70.1%, 49.7% and 65.1%, respectively. The “Progesterone receptor” value on progesterone receptor stood at 3.41. For the same molecule, the IC50 on progesterone receptor stood at 110 nM; in test [3] (setting [8]) it was 1000 nM.

Regarding `CC[C@]12CC[C@H]3[C@@H](CCC4=CC(=O)CC[C@@H]43)[C@@H]1CC[C@@]21C=CCO1` (stereo in doubt) [Example 7, 18-Methyl-17α-(1′-propenyl)-17β-3′-oxidoestra-4-en-3-one], the “Mineralocorticoid receptor (MR) Competition factor” value in test [1] came out at 1.6. Besides, on androgen receptor [2], the IC50 was 160 nM and the EC50 is 3.7 nM. The Emax at androgen receptor [2] (setting [6]) was found to be 25.4%. Besides, the Emax on androgen receptor [2] (setting [7]) came to 78.3%. Also, on progesterone receptor, the “Progesterone receptor” value was found to be 0.19, the IC50 worked out at 5.3 nM and the “CF PR/CF MR” value was found to be 0.12. The “Androgen receptor Competition factor” value on androgen receptor [5] is 0.5. Moreover, in test [3] (setting [8]), the IC50 is 5 nM and the Emax is 87.8%.

As to `CC[C@]12CC[C@H]3[C@@H](C=CC4=CC(=O)CC[C@@H]43)[C@@H]1CC[C@@]21C=CCO1` (stereo in doubt) [Example 8, 18-Methyl-17α-(1′-propenyl)-17β-3′-oxidoestra-4,6-dien-3-one], in test [1], the “Mineralocorticoid receptor (MR) Competition factor” value is listed as 1.2. Besides, the Emax at androgen receptor [2] (setting [6]) came out at 5%; on androgen receptor [2] (setting [7]), 62%; in test [4], 12.3%; in test [3] (setting [8]) it was 112%. Also, the “Progesterone receptor” value at progesterone receptor is recorded as 1.78. The EC50 in test [4] was 1.1 nM. Besides, the concentration for half-maximal inhibition (IC50) in test [3] (setting [8]) worked out at 66 nM.

Consider `C[C@]12CCC(=O)C=C1[C@@H]1C[C@@H]1[C@H]1[C@@H]3[C@@H]4C[C@@H]4[C@@]4(CCC(=O)O4)[C@@]3(C)CC[C@@H]12` [A, 6β,7β-15β,16β-dimethylene-3-oxo-17-pregn-4-ene-21,17β-carbolactone, reference compound], for which the “Mineralocorticoid receptor (MR) Competition factor” value in test [1] is reported as 0.5. Also, the “Progesterone receptor” value at progesterone receptor is listed as 2.7. In addition, the Emax is 72.2% in test [4] and 64.1% in test [3] (MDCK).

`C[C@@H]1CC2=CC(=O)CC[C@@H]2[C@H]2CC[C@@]3(C)[C@@H](CC[C@@]34C=CCO4)[C@@H]21` [Example 3, 7α-Methyl-17α-(1′-propenyl)-17β-3′-oxidoestra-4-en-3-one]: in test [1], the “Mineralocorticoid receptor (MR) Competition factor” value is reported as 3.2. The Emax worked out at 5% on androgen receptor [2] (setting [6]), 80.2% on androgen receptor [2] (setting [7]), 61.6% in test [4] and 112% in test [3] (setting [8]). Besides, the “Progesterone receptor” value on progesterone receptor was determined as 2.41. Moreover, the IC50 on progesterone receptor turned out to be 62 nM; in test [3] (setting [8]) it was 17 nM. Further, the EC50 in test [4] is 3.7 nM.

Consider `CC[C@@H]1CC2=CC(=O)CC[C@@H]2[C@H]2CC[C@@]3(C)[C@@H](CC[C@@]34C=CCO4)[C@H]12` [Example 4, 7α-Ethyl-17α-(1′-propenyl)-17β-3′-oxidoestra-4-en-3-one], for which, in test [1], the “Mineralocorticoid receptor (MR) Competition factor” value is reported as 4.1. In addition, the IC50 stood at 1000 nM at androgen receptor [2], 130 nM on progesterone receptor, 64 nM at androgen receptor [5] and 310 nM in test [3] (setting [8]). Moreover, the Emax on androgen receptor [2] (setting [6]) worked out at 5%; at androgen receptor [2] (setting [7]) it was 62.3%; in test [4] it was 65.1%; in test [3] (setting [8]) it was 82.2%. For the same molecule, the EC50 was determined as 7.3 nM on androgen receptor [2] and 67 nM in test [4]. Also, at progesterone receptor, the “Progesterone receptor” value is listed as 11.75. Further, at progesterone receptor, the “CF PR/CF MR” value was 2.87. Further, on androgen receptor [5], the “Androgen receptor Competition factor” value was 2.9.

Turning to `C=C[C@@H]1CC2=CC(=O)CC[C@@H]2[C@H]2CC[C@@]3(C)[C@@H](CC[C@@]34C=CCO4)[C@@H]21` [Example 5, 17α-(1′-Propenyl)-7α-vinyl-17β-3′-oxidoestra-4-en-3-one], the “Mineralocorticoid receptor (MR) Competition factor” value in test [1] turned out to be 2.6. In addition, the results for the IC50 (at androgen receptor [2]; on androgen receptor [5]; in test [3] (setting [8])) were 1000 nM, 53 nM and 57 nM, respectively. For the same molecule, the Emax on androgen receptor [2] (setting [6]) came to 5%; at androgen receptor [2] (setting [7]) it was 86.8%; in test [4] it was 21.9%; in test [3] (setting [8]) it was 121%. The figures for the EC50 (on androgen receptor [2]; in test [4]) were 3.7 nM and 1.2 nM, respectively. The “Progesterone receptor” value at progesterone receptor was found to be 2.46. The “CF PR/CF MR” value at progesterone receptor stood at 0.95. Besides, the “Androgen receptor Competition factor” value on androgen receptor [5] is recorded as 2.2.

Consider `CC[C@]12CC[C@H]3[C@@H]([C@H](C)CC4=CC(=O)CC[C@@H]43)[C@@H]1CC[C@@]21C=CCO1` [Example 9, 7α,18-Dimethyl-17α-(1′-propenyl)-17β-3′-oxidoestra-4-en-3-one], for which, in test [1], the “Mineralocorticoid receptor (MR) Competition factor” value is given as 1.6. The IC50 at androgen receptor [2] is 1000 nM; on progesterone receptor, 77 nM; on androgen receptor [5], 81 nM; in test [3] (setting [8]) it was 38 nM. For the same molecule, the Emax at androgen receptor [2] (setting [6]) was 5%; on androgen receptor [2] (setting [7]) it was 77.9%; in test [4] it was 55.9%; in test [3] (setting [8]), 105%. The EC50 at androgen receptor [2] was 3 nM; in test [4], 7.1 nM. On progesterone receptor, the “Progesterone receptor” value is listed as 3.26. Further, at progesterone receptor, the “CF PR/CF MR” value was 2.04. Moreover, the “Androgen receptor Competition factor” value on androgen receptor [5] is on record as 3.0.

With `CC[C@]12CC[C@H]3[C@@H]([C@H](C4CC4)CC4=CC(=O)CC[C@@H]43)[C@@H]1CC[C@@]21C=CCO1` [Example 12, 7α-Cyclopropyl-18-methyl-17α-(1′-propenyl)-17β-3′-oxidoestra-4-en-3-one], the “Mineralocorticoid receptor (MR) Competition factor” value in test [1] came to 2.0. The Emax on androgen receptor [2] (setting [6]) was 5%. Also, the Emax on androgen receptor [2] (setting [7]) amounted to 70.1%. Also, on progesterone receptor, the “Progesterone receptor” value was 8.51 and the IC50 was found to be 210 nM. In addition, in test [4], the EC50 came to 55 nM and the Emax was 30.9%. Also, in test [3] (MDCK reporter cells, 1 nM aldosterone, cell spans IC50 and efficacy), the “Mineralocorticoid receptor Antagonism (result in words)” value is “Partial agonist”.
